Experimental data published in patent US20160115540A1, “PRODRUGS AND DRUGS” (Biogen MA Inc., priority 2013, published 2016).
Structures can show the parent of a compound that is named as a salt.

System: blood and tissues
Assay: Transcriptional profiling, acute (single) dosing, EAE mice: blood and tissues
Type: in vivo
Text: EAE induction is generally performed by immunization with brain extracts, CNS proteins (such as myelin basic protein), or peptides from such protein emulsified in an adjuvant such as complete Freund's adjuvant, e.g., as described in Linker et al., Brain. 2011 March 134(Pt3): 678-92. […] FIG. 17 depicts exemplary immunophenotyping panels used to analyze various immune cell populations (e.g., T cells, T regulatory cells, NK cells, B cells, myeloid cells). […] The number of independent mice whose tissues were harvested for transcript profiling studies and whose data passed QC is shown in TABLE 15. Animals were exposed to CO2 and whole blood collected via cardiac puncture. Two 100 μl aliquots of whole blood were collected in 1.5 mL microcentrifuge tubes and snap frozen in liquid nitrogen. Peripheral (liver, spleen, kidney and jejunum) and CNS brain (cerebellum, hippocampus, striatum and cortex) tissues were harvested and snap frozen in liquid nitrogen, with special care taken to collect tissues of similar size and from the same location. All samples were stored at -80° C. until RNA extraction was conducted. For RNA preparation, frozen tissues were placed in 2 mL RNAse-free 96-well blocks with 1.5 mL QIAzol Lysis Reagent (QIAgen) and a 3.2 mm stainless steel bead (BioSpec Products, Bartlesville, Okla.). Tissues were disrupted for four cycles of 45 seconds in a Mini-Beadbeater (Biospec Products). RNA was extracted in chloroform and the aqueous phase was mixed with an equal volume of 70% ethanol. Extracted RNA was applied to RNeasy 96 plates and purified by the spin method according to the manufacturer's protocol (RNeasy 96 Universal Tissue Protocol, QIAgen, Hilden Germany). 50 ul of snap frozen mouse blood was re-suspended in lysis buffer with proteinase K and arrayed into deep-well plates for automated RNA extraction. RNA extractions were completed on […] (Beckman Coulter, Indianapolis, Ind.) using Agencourt RNAdvance Blood kit (Part number A35604) according to the manufacturer's specifications. RNA integrity was assessed using the HT RNA reagent kit (Part number 760410, Caliper Life Sciences, Hopkinton, Mass.) using a LabChip GX (PerkinElmer, Waltham, Mass.). RNA samples with a RQS score of >8.0 were considered high quality for downstream microarray processing. […] Washing and staining of the hybridized arrays were completed as described in the GeneChip Expression analysis technical manual for HT plate arrays using the Genechip® Array Station (Affymetrix, Santa Clara, Calif.) with modifications as described in […] et al. The processed GeneChip® plate arrays were scanned using GeneTitan scanner (Affymetrix, Santa Clara, Calif.). Affymetrix scans were subject to quality control (QC) measures. These tests included a visual inspection of the distribution of raw signal intensities and an assessment of RNA degradation, relative log expression (RLE), and normalized unscaled standard error (NUSE). All sample scans that passed these QC metrics were included in the analysis. […] Nucleic Acids Res 2003; 31:e15; Li C, et al. Genome Biol 2001; 2:[…]0032). […] Stat Appl Genet Mol Biol 2004; 3:Article3). […] Springer Science+Business Media 2005). […] Generally, no distinct sample groupings were apparent from this analysis; however, in the following cohorts, differences in EAE severity across the mice were manifest in global gene expression patterns: An example of this animal grouping is shown in FIG. 33 for the spinal cord from the chronically-dosed 7 h EAE mice. […] Three distinct groups of mice result from unsupervised clustering, and these animal groups correlate with the cumulative EAE score. […] Subsequent analyses for the cohorts listed above only included those animals with the most severe EAE scores; however, for the cohorts 'Spinal Cord, Acute Dosing, 7 h' and 'Spleen, Acute Dosing, 12 h,' there were an insufficient number of mice in the different treatment groups to perform such a sub-analysis. […]

[1] = EAE, Acute Dosing, 90 mpk MMF-vs-Vehicle, 7 h after last dosing
[2] = EAE, Acute Dosing, 90 mpk MMF-vs-Vehicle, 12 h after last dosing
[3] = lymph node, 100MMF-vs-Veh, 12 h

## COC(=O)/C=C/C(=O)O [MMF, monomethyl fumarate]
[1]
  Number of differentially expressed genes identified: Brain: 0
  Number of differentially expressed genes identified: Cerebellum: 1
  Number of differentially expressed genes identified: Lymph Node: 6
  Number of differentially expressed genes identified: Spleen: 114
  Number of differentially expressed genes identified: Whole blood: 6
[2]
  Number of differentially expressed genes identified: Brain: 0
  Number of differentially expressed genes identified: Cerebellum: 1
  Number of differentially expressed genes identified: Lymph Node: 4
  Number of differentially expressed genes identified: Spinal Cord: 1
  Number of differentially expressed genes identified: Whole blood: 7
cerebellum, 100MMF-vs-Veh, 12 h
  FC 5830436I19Rik 1437136_PM_at: 1.87
cerebellum, 100MMF-vs-Veh, 7 h
  FC 1446570_PM_at: 1.51
Lymph node, 100MMF-vs-Veh, 7 h
  FC Aox1 (1419435_PM_at): 2.17
  FC F3 1417408_PM_at: 1.57
  FC Gclm 1439050_PM_at: 1.50
  FC Nqo1 (1423627_PM_at): 1.98
  FC Srxn1 (1419942_PM_at): 1.65
  FC Srxn1 (1426875_PM_s_at): 1.61
[3]
  FC 1446567_PM_at: 1.74
  FC 1457549_PM_at: 1.67
  FC 4930453J04Rik 1454406_PM_at: 1.76
  FC 5830436I19Rik 1437136_PM_at: 1.65
Spinal cord, 100MMF-vs-Veh, 12 h
  FC 1445562_PM_at: 2.11
spleen, 100MMF-vs-Veh, 7 h
  FC 1190002H23Rik 1438511_PM_a_at: 1.60
  FC 1438259_PM_at: 1.56
  FC 1443364_PM_at: 1.88
  FC 1443911_PM_at: 1.54
  FC 1444212_PM_at: 1.54
  FC 1446234_PM_at: 1.50
  FC 1447706_PM_at: 1.57
  FC 1451626_PM_x_at: 1.60
  FC 1452426_PM_x_at: 1.58
  FC 1458296_PM_at: 1.79
  FC 1458586_PM_at: 1.50
  FC 2410129H14Rik 1434664_PM_at: 1.74
  FC 2410129H14Rik 1455052_PM_a_at: 1.56
  FC 2610021A01Rik 1438786_PM_a_at: 1.55
  FC 4732418C07Rik 1446425_PM_at: 1.53
  FC 5730508B09Rik 1447100_PM_s_at: 1.91
  FC AI662270 1434067_PM_at: 1.52
  FC Abi1 1438506_PM_s_at: 1.61
  FC Aco1 (1456728_PM_x_at): 1.69
  FC Acp1 1422716_PM_a_at: 1.80
  FC Adk 1438292_PM_x_at: 1.54
  FC Ampd3 1422573_PM_at: 1.61
  FC Apol9a /// Apol9b 1424518_PM_at: 1.57
  FC Arhgap21 1428369_PM_s_at: 1.57
  FC Arl4a 1435092_PM_at: 2.26
  FC Arl6ip6 1424020_PM_at: 1.52
  FC B3galnt2 1454842_PM_a_at: 1.51
  FC Birc6 1442959_PM_at: 1.54
  FC C79407 1434767_PM_at: 1.95
  FC C1d 1416886_PM_at: 1.52
  FC C330027C09Rik 1449699_PM_s_at: 1.59
  FC Cat 1416429_PM_a_at: 1.51
  FC Ccl6 (1420249_PM_s_at): 1.57
  FC Cdyl 1418070_PM_at: 1.73
  FC Cenpa 1441864_PM_x_at: 1.86
  FC Chic2 1429050_PM_at: 1.67
  FC Cno 1459783_PM_s_at: 1.58
  FC Cpt1a 1434866_PM_x_at: 1.54
  FC Cpt1a 1438156_PM_x_at: 1.52
  FC Cul4a 1451971_PM_at: 1.71
  FC Cycs /// Gm10053 1456071_PM_a_at: 1.64
  FC D030056L22Rik 1455384_PM_x_at: 1.60
  FC Dck 1439012_PM_a_at: 1.59
  FC Dck 1449176_PM_a_at: 1.89
  FC Dctn6 1416499_PM_a_at: 1.53
  FC Dennd4a 1435975_PM_at: 1.71
  FC Ell2 1450744_PM_at: 1.58
  FC Elmo1 1424523_PM_at: 1.52
  FC Gclm 1439050_PM_at: 1.99
